Results reported in patent publication US20140249139A1, “Quinazoline Derivatives” (NOVARTIS AG, priority 2011, published 2014).

Columns and labels:
PI3K alpha = biological target: T1, PI3K alpha (Homo sapiens, UniProt P42336); assay: Enzymatic PI3K alpha isoform inhibition (lipid kinase activity, Kinase-Glo); type: biochemical; settings: enzymatic assay
T1 construct: for the p110-a subunit (with a deletion of the first 20 amino acids) are generated; His tag (C); made in house; host or cells: baculovirus BV1075; Tn5 (Trichoplusia ni) or TiniPro insect cells
T1 sequence (P42336 with tags, fused parts or gaps limits assumed, species assumed): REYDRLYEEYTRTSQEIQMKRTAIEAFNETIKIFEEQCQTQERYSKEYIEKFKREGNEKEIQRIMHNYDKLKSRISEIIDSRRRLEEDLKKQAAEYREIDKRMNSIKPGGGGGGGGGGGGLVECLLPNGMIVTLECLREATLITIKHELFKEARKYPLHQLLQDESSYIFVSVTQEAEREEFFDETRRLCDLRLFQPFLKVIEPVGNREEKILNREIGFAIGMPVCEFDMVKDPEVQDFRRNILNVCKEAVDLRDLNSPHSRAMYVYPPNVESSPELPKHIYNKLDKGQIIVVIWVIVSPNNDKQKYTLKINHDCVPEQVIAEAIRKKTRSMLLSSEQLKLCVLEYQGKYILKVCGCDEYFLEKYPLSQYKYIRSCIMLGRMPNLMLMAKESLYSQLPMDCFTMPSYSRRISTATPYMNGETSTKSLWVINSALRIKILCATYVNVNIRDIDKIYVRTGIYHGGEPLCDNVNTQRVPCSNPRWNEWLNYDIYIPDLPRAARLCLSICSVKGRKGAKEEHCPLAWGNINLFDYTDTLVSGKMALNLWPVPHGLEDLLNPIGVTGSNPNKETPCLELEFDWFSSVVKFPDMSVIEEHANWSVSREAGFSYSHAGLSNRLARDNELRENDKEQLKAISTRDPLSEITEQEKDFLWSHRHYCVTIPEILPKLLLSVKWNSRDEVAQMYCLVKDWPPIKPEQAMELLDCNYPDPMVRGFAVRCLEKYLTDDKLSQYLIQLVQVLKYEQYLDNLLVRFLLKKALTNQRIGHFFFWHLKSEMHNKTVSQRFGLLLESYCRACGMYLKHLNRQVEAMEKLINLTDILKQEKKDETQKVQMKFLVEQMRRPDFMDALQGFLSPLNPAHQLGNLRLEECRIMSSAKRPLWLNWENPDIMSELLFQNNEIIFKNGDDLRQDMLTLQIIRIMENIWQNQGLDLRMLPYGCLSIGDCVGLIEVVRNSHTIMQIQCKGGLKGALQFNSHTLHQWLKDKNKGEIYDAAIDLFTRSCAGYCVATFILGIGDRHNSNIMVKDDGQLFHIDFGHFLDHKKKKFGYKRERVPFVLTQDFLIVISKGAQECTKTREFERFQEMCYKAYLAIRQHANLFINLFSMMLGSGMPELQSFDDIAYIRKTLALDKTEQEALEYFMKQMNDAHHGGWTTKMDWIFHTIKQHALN
Experimental: (§1) The components of the assay are added per well as follows:
(§2) IC50 is determined by a four parameter curve fitting routine that comes along with “excel fit”.
(§3) Yet alternatively, for an ATP depletion assay, compounds of the formula I to be tested are dissolved in DMSO and directly distributed into a white 384-well plate at 0.5 μl per well. To start the reaction, 10 μl of 10 nM PI3 kinase and 5 μg/ml 1-alpha-phosphatidylinositol (PI) are added into each well followed by 10 μl of 2 μM ATP. The reaction is performed until approx 50% of the ATP is depleted, and then stopped by the addition of 20 μl of Kinase-Glo solution (Promega Corp., Madison, Wis., USA). The stopped reaction is incubated for 5 minutes and the remaining ATP is then detected via luminescence. IC50 values are then determined.

PI3K delta = biological target: T2, PI3K delta (Homo sapiens, UniProt O00329); assay: Enzymatic PI3K delta isoform inhibition (lipid kinase activity, Kinase-Glo); type: biochemical; settings: enzymatic assay
T2 construct: for the full-length p110-d subunit are generated and fused by overlapping PCR; His tag (C); made in house; host or cells: baculovirus BV1060; Tn5 (Trichoplusia ni) or TiniPro insect cells
T2 sequence (O00329 with tags, fused parts or gaps limits assumed, species assumed): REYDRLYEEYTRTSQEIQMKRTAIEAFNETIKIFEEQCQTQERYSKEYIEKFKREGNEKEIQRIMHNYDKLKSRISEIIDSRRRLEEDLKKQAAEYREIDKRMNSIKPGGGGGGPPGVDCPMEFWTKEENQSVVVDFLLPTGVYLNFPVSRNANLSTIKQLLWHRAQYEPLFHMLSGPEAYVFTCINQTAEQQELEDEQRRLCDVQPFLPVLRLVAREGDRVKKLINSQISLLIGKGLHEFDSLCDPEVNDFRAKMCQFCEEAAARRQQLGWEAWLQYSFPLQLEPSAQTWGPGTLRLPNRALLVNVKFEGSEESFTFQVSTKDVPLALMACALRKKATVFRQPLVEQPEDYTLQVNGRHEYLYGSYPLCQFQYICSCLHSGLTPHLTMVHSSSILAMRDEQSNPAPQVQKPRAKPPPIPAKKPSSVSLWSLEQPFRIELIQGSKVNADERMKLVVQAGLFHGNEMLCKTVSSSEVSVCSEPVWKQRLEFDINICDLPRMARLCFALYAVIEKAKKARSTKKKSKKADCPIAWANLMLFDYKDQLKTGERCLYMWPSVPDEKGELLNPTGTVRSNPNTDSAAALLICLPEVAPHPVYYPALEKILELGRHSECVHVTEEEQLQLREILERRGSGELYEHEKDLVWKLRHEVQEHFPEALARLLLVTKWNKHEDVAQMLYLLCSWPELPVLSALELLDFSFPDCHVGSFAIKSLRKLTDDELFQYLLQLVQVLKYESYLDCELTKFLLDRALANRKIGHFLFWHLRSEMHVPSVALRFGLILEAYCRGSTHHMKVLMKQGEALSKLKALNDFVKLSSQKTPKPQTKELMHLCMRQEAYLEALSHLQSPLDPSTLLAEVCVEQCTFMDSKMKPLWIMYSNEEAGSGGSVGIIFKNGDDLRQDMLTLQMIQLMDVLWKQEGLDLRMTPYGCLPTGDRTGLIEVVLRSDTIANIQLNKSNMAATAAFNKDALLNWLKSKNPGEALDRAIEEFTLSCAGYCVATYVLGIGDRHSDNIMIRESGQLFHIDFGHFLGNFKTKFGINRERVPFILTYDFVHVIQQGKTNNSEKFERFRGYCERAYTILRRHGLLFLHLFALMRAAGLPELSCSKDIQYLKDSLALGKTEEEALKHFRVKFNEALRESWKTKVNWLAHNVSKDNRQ
Experimental: as §1, §2, §3

`CN1CCN(C(=O)c2cccc(-c3ncnc4ccc(-c5ccc(N6CCNCC6)nc5)cc34)c2)CC1` [Example 18] gave an IC50 (PI3K alpha) of 1290 nM and an IC50 (PI3K delta) of 42.1 nM.

`CN1CCN(C(=O)c2cccc(-c3ncnc4ccc(-c5cncc(S(C)(=O)=O)c5)cc34)c2)CC1` [Example 24] gave an IC50 (PI3K alpha) of 400 nM and an IC50 (PI3K delta) of 15 nM.

Work on `CC(=O)N1CCN(C(=O)c2cccc(-c3ncnc4ccc(-c5cnc(N)nc5)cc34)c2)CC1` [Example 8] yielded an IC50 (PI3K alpha) of 268 nM and an IC50 (PI3K delta) of 9.5 nM.

With `COc1cc(C(=O)N2CCN(C(C)=O)CC2)cc(-c2ncnc3ccc(-c4ccc(OC)nc4)cc23)c1` [Example 106, 1-(4-{3-Methoxy-5-[6-(6-methoxy-pyridin-3-yl)-quinazolin-4-yl]-benzoyl}-piperazin-1-yl)-ethanone] the IC50 (PI3K alpha) was 440 nM and the IC50 (PI3K delta) was 5 nM.

With `COc1ncc(-c2ccc3ncnc(-c4cncc(C(=O)N5CCOC(C)(C)C5)c4)c3c2)cc1C(F)(F)F` [Example 61] the IC50 (PI3K alpha) was 390 nM and the IC50 (PI3K delta) was 3 nM.

`COc1cc(C(=O)N2CCN(C(C)=O)CC2)cc(-c2ncnc3ccc(-c4cnc(OC)c(C#N)c4)cc23)c1` [Example 105, 5-{4-[3-(4-Acetyl-piperazine-1-carbonyl)-5-methoxy-phenyl]-quinazolin-6-yl}-2-methoxy-nicotinonitrile] showed an IC50 (PI3K alpha) of 720 nM and an IC50 (PI3K delta) of 7 nM.

For `COc1ccc(-c2ccc3ncnc(-c4cccc(C(=O)N5CCN(C(C)=O)C(C)(C)C5)c4)c3c2)cn1` [Example 36, 1-(4-{3-[6-(6-Methoxy-pyridin-3-yl)-quinazolin-4-yl]-benzoyl}-2,2-dimethyl-piperazin-1-yl)-ethanone], the IC50 (PI3K alpha) was 217 nM and the IC50 (PI3K delta) was 4.5 nM.

Work on `COc1ncc(-c2ccc3ncnc(-c4ccnc(C(=O)N5CCN(C(C)=O)CC5)c4)c3c2)cc1C#N` [Example 113, 5-{4-[2-(4-Acetyl-piperazine-1-carbonyl)-pyridin-4-yl]-quinazolin-6-yl}-2-methoxy-nicotinonitrile] yielded an IC50 (PI3K alpha) of 979 nM and an IC50 (PI3K delta) of 18 nM.

`COc1ccc(-c2ccc3ncnc(-c4cccc(C(=O)N5CC6CC5CN6)c4)c3c2)cn1` (stereo not shown) [Example 38, (2,5-Diaza-bicyclo[2.2.1]hept-2-yl)-{3-[6-(6-methoxy-pyridin-3-yl)-quinazolin-4-yl]-phenyl}-methanone] was tested, and the IC50 (PI3K alpha) was 372 nM and the IC50 (PI3K delta) was 7 nM.

`COc1ccc(-c2ccc3ncnc(-c4cccc(C(=O)N5CCN(CC(F)(F)F)CC5)c4)c3c2)cn1` [Example 87, {3-[6-(6-Methoxy-pyridin-3-yl)-quinazolin-4-yl]-phenyl}-[4-(2,2,2-trifluoro-ethyl)-piperazin-1-yl]-methanone] was tested, and the IC50 (PI3K alpha) was 126 nM and the IC50 (PI3K delta) was < 3 nM.

In the case of `CN1CCN(C(=O)c2cccc(-c3ncnc4ccc(-c5ccc(N(C)C)nc5)cc34)c2)CC1` [Example 17], the IC50 (PI3K alpha) is reported as 352 nM and the IC50 (PI3K delta) is reported as 6.38 nM.

With `COc1ccc(-c2ccc3ncnc(-c4cccc(C(=O)N5CCN(C)CC5)c4)c3c2)cc1S(=O)(=O)N1CCOCC1` [Example 21] the IC50 (PI3K alpha) was 2270 nM and the IC50 (PI3K delta) was 14.5 nM.

In the case of `COc1ncc(-c2ccc3ncnc(-c4cncc(C(=O)N5CCN(C)CC5)c4)c3c2)cc1F` [Example 55], the IC50 (PI3K alpha) is reported as 193 nM and the IC50 (PI3K delta) is reported as 9.25 nM.

Work on `COc1ncc(-c2ccc3ncnc(-c4cncc(C(=O)N5CCOCC5)c4)c3c2)cc1C#N` [Example 69] yielded an IC50 (PI3K alpha) of 880 nM and an IC50 (PI3K delta) of 8 nM.

With `CC(=O)N1CCN(C(=O)c2cccc(-c3ncnc4ccc(-c5cc(C#N)c(N)c(C(F)(F)F)c5)cc34)c2)CC1` [Example 10] the IC50 (PI3K alpha) was > 9100 nM and the IC50 (PI3K delta) was 27 nM.

`COc1ncc(-c2ccc3ncnc(-c4cc(F)cc(C(=O)N5CCN(C(C)=O)CC5)c4)c3c2)cn1` [Example 111, 1-(4-{3-Fluoro-5-[6-(2-methoxy-pyrimidin-5-yl)-quinazolin-4-yl]-benzoyl}-piperazin-1-yl)-ethanone] was tested, and the IC50 (PI3K alpha) was 1360 nM and the IC50 (PI3K delta) was 10 nM.

Work on `Cc1ccc(-c2ccc3ncnc(-c4cccc(C(=O)N5CCN(C)CC5)c4)c3c2)cc1S(C)(=O)=O` [Example 43] yielded an IC50 (PI3K alpha) of 374 nM and an IC50 (PI3K delta) of 11 nM.
